Results reported in patent publication US6602897B2, “m-Amino-phenylimino-imidazolidine derivatives for treating urinary incontinence” (Boehringer Ingelheim Pharma KG, priority 2000, dated 2003).
Where a name gives a salt, the structure may show the parent alone.

Tests used:
[1] = biological target: CYP2D6 (Homo sapiens, UniProt P10635); assay: Metabolism: breakdown of test substance by enzyme CYP2D6; assay type: in vitro ADME
Protocol: To determine the metabolism, the enzyme CYP2D6 was allowed to act on the test substances. After 30 minutes, a check was made to see how much of the test substance put in had been broken down by the enzyme.

[2] = system: HLM; assay: Metabolism: breakdown of test substance by HLM; assay type: in vitro ADME
Protocol: The rate of breakdown under the effect of the enzyme HLM/60 minutes is tested analogously.

[3] = system: dog; assay: Efficacy: maximum contraction in the dog compared with noradrenalin; conditions: percentage of contraction compared with noradrenalin
Protocol: (§1) The efficacy and selectivity of the compounds is determined as follows:
(§2) The maximum contraction in the dog and the activity on the human urethra are given as percentages of contraction compared with noradrenalin. Selectivity in the dog: percentage contraction on the femoral artery in the dog at 10^−5 M—percentage contraction on the carotid artery in the dog at 10^−5 M.

[4] = system: Human Urethra; assay: Efficacy: activity on the human urethra, contraction compared with noradrenalin; conditions: percentage of contraction compared with noradrenalin
Protocol: as §1, §2

[5] = system: femoral artery in the dog / carotid artery in the dog; assay: Selectivity in the dog: contraction on femoral artery vs carotid artery; conditions: percentage contraction on femoral artery at 10^-5 M — percentage contraction on carotid artery at 10^-5 M
Protocol: as §1, §2

[6] = Bioavailability after oral vs intravenous administration to fasted male rats, plasma HPLC; assay type: in vivo; conditions: rat, oral compared with intravenous, pooled plasma by HPLC
Protocol: In order to determine bioavailability, the test substances were administered orally to a group of 8 male rats which had been fasted. As a comparison, the test substances were administered intravenously to animals in an identical second group. 1 ml blood samples were taken from the animals of both groups at specified times after administration (10 minutes, 30 minutes, 1 hour, 2 hours, and 4 hours, and additionally after 6 hours in the case of the animals treated by oral route). The blood samples taken in each group were mixed together (8 ml). After further working up, the content of the test substances in the blood for the particular time was determined from the plasma by HPLC (High Performance Liquid Chromatography) using standard methods and compared for the two groups.

Sequence of CYP2D6 (P10635 whole entry): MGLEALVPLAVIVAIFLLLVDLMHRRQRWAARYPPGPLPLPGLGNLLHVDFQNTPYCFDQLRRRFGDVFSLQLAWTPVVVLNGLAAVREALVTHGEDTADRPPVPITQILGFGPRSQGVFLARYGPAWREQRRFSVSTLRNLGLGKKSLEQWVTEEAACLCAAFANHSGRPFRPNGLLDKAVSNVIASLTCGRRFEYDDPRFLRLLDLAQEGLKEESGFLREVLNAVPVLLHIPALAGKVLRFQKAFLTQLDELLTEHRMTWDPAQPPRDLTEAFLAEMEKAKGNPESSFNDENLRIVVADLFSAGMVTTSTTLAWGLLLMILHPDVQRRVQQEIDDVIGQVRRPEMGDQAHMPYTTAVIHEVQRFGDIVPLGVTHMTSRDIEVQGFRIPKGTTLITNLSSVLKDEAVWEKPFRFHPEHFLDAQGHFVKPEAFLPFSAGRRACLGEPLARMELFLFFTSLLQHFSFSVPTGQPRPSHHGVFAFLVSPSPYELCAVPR

| SMILES | melting point | % Breakdown of Substrate after 30 minutes' Incubation with CYP2D6 [1] | Breakdown of Substrate after 60 minutes' Incubation with HLM [2] | Activity in the Dog (maximum contraction) [3] | Activity on Human Urethra [4] | Selectivity in the Dog [5] | bioavailability [6] |
| --- | --- | --- | --- | --- | --- | --- | --- |
| CN(C)c1ccc(Br)c(NC2=NCCN2)c1Cl | 142 to 145 °C | – | – | – | – | – | – |
| Cc1c(N(C)C)cc(Cl)c(Br)c1NC1=NCCN1 (as salt: hydrochloride) [Compound 1, 2′-Bromo-3′-chloro-5′-dimethylamino-6′-methylphen-1′-yl-2-iminoimidazolidine] | 239 to 240 °C | – | – | – | – | – | – |
| Cc1c(N(C)C)cc(Cl)c(Br)c1NC1=NCCN1 [Compound 1, 2′-Bromo-3′-chloro-5′-dimethylamino-6′-methylphen-1′-yl-2-iminoimidazolidine] | – | 40.5% | 32.1 | 109% | 100% | 0.92 | – |
| Cc1c(NC2=NCCN2)cc(Br)cc1N(C)C [Compound 3, 3′-bromo-5′-dimethylamino-6′-methylphen-1′-yl-2-iminoimidazolidine] | 140 to 143 °C | 33.9% | 17.0 | 87% | 72% | 0.76 | – |
| Cc1c(NC2=NCCN2)cc(Cl)cc1N(C)C [Compound 4, 3′-chloro-5′-dimethylamino-6′-methylphen-1′-yl-2-iminoimidazolidine] | – | 36.5% | 17.1 | 116% | 137% | 0.99 | 11% |
| Cc1c(N(C)C)cc(Br)c(Br)c1NC1=NCCN1 [Compound 5, 2′-3′-dibromo-5′-dimethylamino-6′-methylphen-1′-yl-2-iminoimidazolidine] | – | 22.2% | 22.0 | 89% | 113% | 0.71 | 0.8% |
| CN(C)c1cccc(NC2=NCCN2)c1Cl [Compound 6, 2′-chloro-3′-dimethylaminophen-1′-yl-2-iminoimidazolidine] | 146 to 148 °C | – | 7.4 | – | – | – | – |
| CN(C)c1c(Br)ccc(NC2=NCCN2)c1Cl [Compound 7, 4′-bromo-2′-chloro-3′-dimethylaminophen-1′-yl-2-iminoimidazolidine] | 150 to 155 °C | 46.4% | 55.8 | – | – | – | – |
